TGI data for 19 compounds are collected here from PubChem BioAssay (NCI).

One may read the TGI as the concentration giving total growth inhibition. High values mean lower sensitivity of the cells, low ones greater sensitivity of the cells.

Holding throughout (assay): DTP human tumour cell line panel, 48 h
Assay [1] relates to BT-549 breast.
For assay [2], the system named is K-562 leukemia.
Assay [3] deals with HOP-62 NSCLC.
Assay [4] relates to SK-MEL-2 melanoma.
Assay [5] deals with 786-0 renal.
For assay [6], the system named is SF-539 CNS.
The test system of assay [7] is ACHN renal.
In assay [8] the test system is HCT-15 colon.
The subject of assay [9] is M14 melanoma.
The test system of assay [10] is MDA-MB-435.
The test system of assay [11] is DU-145 prostate.
For assay [12], the system named is IGROV1 ovarian.
Assay [13] concerns MALME-3M melanoma.
Assay [14] deals with HT29 colon.

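Compound exposure: 48 hours, 5 concentrations, 96-well plates. TGI denotes the concentration required for complete inhibition of growth.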

In the case of `CCOC(=O)C(NNS(=O)(=O)c1ccc(C)cc1)S(=O)(=O)C(F)(F)C(F)(F)C(F)(F)C(F)(F)F` (stereo unspecified), the TGI in assay [1], in [2], in [3], in [4], in assay [5] and in assay [6] was > 100 µM each time. The TGI in [7], in assay [8], in [9], in assay [10], in [11] and in assay [12] was > 100 µM in each case. In addition, the TGI in assay [13] and in assay [14] was > 100 µM in each case.

For the compound `O=S(=O)(O)c1cc(S(=O)(=O)O)c2c(N=Nc3cccc4ccccc34)c(O)ccc2c1`, the TGI in assay [1], in assay [2], in assay [3], in assay [4], in assay [5] and in assay [6] was > 100 µM each time. In addition, the TGI in assay [7], in assay [8], in [9], in [10], in assay [11] and in assay [12] was > 100 µM in each case. Besides, the TGI in [13] and in assay [14] was > 100 µM throughout.

Take `O=C1CCC(=O)N1CNc1ccc2c(c1)Sc1ccccc1O2`: the TGI is 93.4 µM in assay [1]; > 100 µM in assay [2]; > 100 µM in assay [3]; 40.6 µM in assay [4]; 58.9 µM in assay [5]; 34.7 µM in assay [6]. The concentration for total growth inhibition (TGI) was > 100 µM in assay [7]; > 100 µM in assay [8]; 99.2 µM in assay [9]; > 100 µM in assay [10]; > 100 µM in assay [11]; > 100 µM in assay [12]. Further, the figures for the TGI in [13] and in [14] were > 100 µM and 54.7 µM, respectively.

Turning to `CCCCCCCC/C=C\CCCCCCCCNc1ccn(C2OC(COP(=O)(O)OC3CC(n4cc(F)c(=O)[nH]c4=O)OC3CO)C(O)C2O)c(=O)n1` (stereo unspecified), the TGI in [1] was > 100 µM; in [2] it was > 100 µM; in assay [3], > 100 µM; in assay [4], > 100 µM; in assay [5] it was > 100 µM; in assay [6], 5.16 µM. In addition, the TGI is > 100 µM in [7]; > 100 µM in assay [8]; > 73.5 µM in assay [9]; > 100 µM in assay [10]; > 100 µM in assay [11]; > 100 µM in assay [12]. For the same compound, the figures for the TGI in assay [13] and in assay [14] were > 100 µM and > 61.8 µM, respectively.

`CN(C(=O)OC(C)(C)C)[C@H]1CCCC[C@H]1N1CCCC1`: the TGI in assay [1], in [2], in [3], in [4], in assay [5] and in assay [6] was > 100 µM each time. The total growth inhibition concentration (TGI) in [7], in [8], in assay [9], in assay [10], in assay [11] and in assay [12] was > 100 µM each time. Moreover, the TGI in assay [13] and in assay [14] was > 100 µM in each case.

`C1COC2SC3=C(SC(=C4SC5=C(SCCS5)S4)S3)SC2O1` (stereo unspecified): the TGI in assay [1], in assay [2], in [3], in [4], in assay [5] and in assay [6] was > 100 µM in each case. In addition, the TGI in [7], in assay [8], in assay [9], in [10], in assay [11] and in [12] was > 100 µM throughout. For the same compound, the TGI in assay [13] and in assay [14] was > 100 µM in each case.

As to `C[C@]12CC[C@@H]3c4ccc(OC(=O)c5ccccc5)cc4CC[C@H]3[C@@H]1CCC2OC(=O)c1cccc2c(=O)c3ccccc3[nH]c12` (stereo partly specified), the TGI in assay [1] is 38 µM; in assay [2], > 100 µM; in assay [3] it was 50.2 µM; in assay [4], 54.3 µM; in assay [5], 31.7 µM; in [6], 35.6 µM. For the same compound, the TGI in assay [7] stood at 46.8 µM; in assay [8], 29 µM; in assay [9], 37.3 µM; in assay [10] it was 15.4 µM; in [11] it was 42.6 µM; in assay [12], 33.3 µM. The results for the TGI in assay [13] and in assay [14] were 46.8 µM and 20.7 µM, respectively.

On to `O=C(O)c1ccc(Nc2ccnc3cc(Cl)ccc23)cc1O`, for which the TGI in [1] was > 100 µM; in assay [2], > 100 µM; in assay [3] it was > 100 µM; in [4], > 100 µM; in assay [5] it was > 100 µM; in assay [6], 88.7 µM. Moreover, the TGI in [7], in assay [8], in [9], in [10], in assay [11] and in [12] was > 100 µM throughout. Besides, the TGI in assay [13] and in assay [14] was > 100 µM in each case.

Regarding `N#Cc1c(C#N)c(-c2cccc([N+](=O)[O-])c2)n(-c2ccccc2)c1N`, the TGI in assay [1], in [2], in assay [3], in assay [4], in assay [5] and in [6] was > 100 µM each time. The TGI in assay [7], in assay [8], in [9], in [10], in assay [11] and in assay [12] was > 100 µM in each case. Further, the TGI in assay [13] and in assay [14] was > 100 µM in each case.

In the case of `COC(=O)[C@H](CCSC)NC(=O)c1ccc(CNC(=O)/C=C/c2cccc(Oc3ccccc3)c2)cc1`, the TGI in assay [1] was > 100 µM; in [2] it was > 78.8 µM; in assay [3] it was > 100 µM; in [4] it was 32.8 µM; in assay [5] it was > 100 µM; in assay [6], > 100 µM. In addition, the TGI was > 100 µM in assay [7]; > 100 µM in assay [8]; 26.8 µM in assay [9]; 32.9 µM in assay [10]; > 100 µM in assay [11]; > 73.2 µM in assay [12]. The TGI in assay [13] is 37.8 µM; in assay [14], > 100 µM.

Take `c1ccc(N/N=C2\CC(c3ccccc3)Oc3ccccc32)cc1` (stereo unspecified): the TGI in assay [1] is > 100 µM; in [2] it was > 100 µM; in assay [3], > 100 µM; in assay [4], > 100 µM; in assay [5], 66.8 µM; in assay [6], > 100 µM. In addition, the TGI in assay [7], in assay [8], in assay [9], in assay [10], in [11] and in assay [12] was > 100 µM throughout. The TGI in assay [13] and in [14] was > 100 µM each time.

`Cc1cc(S(=O)(=O)Nc2nc(N)n(-c3cnc4ccccc4n3)n2)c(S)cc1Cl`: the TGI in assay [1], in assay [2], in assay [3], in [4], in [5] and in [6] was > 100 µM each time. The TGI in [7], in assay [8], in assay [9], in assay [10], in [11] and in assay [12] was > 100 µM each time. Further, the TGI in assay [13] and in [14] was > 100 µM each time.

Consider `CC12CN(CC[N+](C)(C)C)CC1(C)C1CCC2O1` (stereo unspecified), for which the TGI in [1], in [2], in assay [3], in assay [4], in [5] and in [6] was > 100 µM each time. The concentration for total growth inhibition (TGI) in assay [7], in assay [8], in assay [9], in [10], in assay [11] and in [12] was > 100 µM each time. For the same compound, the TGI in [13] and in assay [14] was > 100 µM in each case.

As for `C=CCNC1=C2C[C@@H](C)C[C@@H](OC)[C@H](OC(=O)CN(C)C)[C@H](C)/C=C(\C)[C@@H](OC(N)=O)[C@H](OC)/C=C\C=C(/C)C(=O)NC(=CC1=O)C2=O`, the TGI was 24 µM in assay [1]; > 42.1 µM in assay [2]; 17.6 µM in assay [3]; 13.9 µM in [4]; 21 µM in [5]; 16.2 µM in [6]. The TGI in [7] is 20.1 µM; in assay [8], 20.4 µM; in assay [9], 18.9 µM; in [10], 13.7 µM; in assay [11] it was 2.72 µM; in [12], 13.5 µM. Also, the figures for the TGI in assay [13] and in assay [14] were 19 µM and 12.7 µM, respectively.

On to `COc1cccc2c1C(=O)C(=O)c1c-2oc(=O)c2cc(C)cc(OC)c12`, for which the TGI in assay [1] was 26 µM; in assay [2], > 75 µM; in assay [3], 32.4 µM; in assay [4] it was 35.1 µM; in assay [5], > 75 µM; in [6], > 75 µM. Besides, the TGI is > 75 µM in assay [7]; 27.7 µM in [8]; > 75 µM in assay [9]; 26.1 µM in assay [10]; 27.9 µM in assay [11]; 32 µM in [12]. Further, the concentration for total growth inhibition (TGI) in [13] and in [14] was > 75 µM in each case.

For the compound `O=C1c2ccccc2C(=O)c2c(OCC3CO3)ccc(OCC3CO3)c21` (stereo unspecified), the TGI in assay [1] worked out at 15.5 µM; in assay [2], 5.96 µM; in assay [3], 7.09 µM; in assay [4], 27.8 µM; in assay [5], 6.48 µM; in assay [6] it was 9.02 µM. Also, the TGI in [7] amounted to 6.63 µM; in assay [8], 4.5 µM; in assay [9], 4.78 µM; in [10], 7.61 µM; in assay [11], 13.3 µM; in assay [12], 10.8 µM. Further, the TGI in assay [13] came out at 20 µM; in assay [14], 15.1 µM.

As for `CC1=C(C)SC(=C2Sc3c(n(C)c(=O)[nH]c3=O)S2)S1`, the TGI in assay [1], in assay [2], in assay [3], in [4], in assay [5] and in [6] was > 100 µM each time. The concentration for total growth inhibition (TGI) in [7], in assay [8], in assay [9], in assay [10], in [11] and in assay [12] was > 100 µM throughout. Moreover, the TGI in [13] and in assay [14] was > 100 µM in each case.

With `CCOC(=O)/C(C#N)=C(/NS(=O)(=O)c1cc(C)c(Cl)cc1[S-])[n+]1ccc(N(C)C)cc1`, the TGI in assay [1], in assay [2], in assay [3], in [4], in assay [5] and in [6] was > 100 µM in each case. Besides, the TGI in assay [7], in [8], in [9], in assay [10], in [11] and in assay [12] was > 100 µM in each case. Moreover, the TGI in assay [13] and in [14] was > 100 µM in each case.

On to `O=C(O)CN1CCNCCN(CC(=O)O)CC1`, for which the TGI in [1], in [2], in [3], in assay [4], in assay [5] and in assay [6] was > 100 µM in each case. Further, the total growth inhibition concentration (TGI) in assay [7], in assay [8], in [9], in [10], in assay [11] and in assay [12] was > 100 µM throughout. In addition, the TGI in assay [13] is > 100 µM; in [14], > 21.4 µM.
